Results reported in the NIST ThermoML archive (doi:10.1021/je0504156).

Assay: xn = mol fraction of the nth substance listed
Conditions: 101 kPa, Liquid

Cc1cccc(O)c1 [3-methylphenol] + CO
Conditions	mass density, 308.15 K [kg/m3]	mass density, 313.15 K [kg/m3]	mass density, 318.15 K [kg/m3]	mass density, 323.15 K [kg/m3]	mass density, 328.15 K [kg/m3]	viscosity, 308.15 K [mPa·s]	viscosity, 313.15 K [mPa·s]	viscosity, 318.15 K [mPa·s]	viscosity, 323.15 K [mPa·s]	viscosity, 328.15 K [mPa·s]
x1 = 0.0999	838.66	834.09	829.48	824.84	820.44	0.725	0.676	0.621	0.588	0.533
x1 = 0.1999	880.62	876.22	871.78	867.32	863.14	0.976	0.906	0.835	0.783	0.72
x1 = 0.2998	914.11	909.92	905.55	901.14	897.17	1.319	1.205	1.1	1.011	0.933
x1 = 0.3999	939.8	935.58	931.38	927.14	923.28	1.778	1.577	1.419	1.29	1.18
x1 = 0.4998	960.97	956.82	952.74	948.57	944.75	2.367	2.079	1.835	1.646	1.459
x1 = 0.6001	977.35	973.31	969.31	965.28	961.59	2.958	2.556	2.243	1.99	1.788
x1 = 0.6998	991.84	987.87	983.92	979.59	976.07	3.767	3.228	2.789	2.437	2.144
x1 = 0.7999	1002.99	998.97	994.93	990.88	987.18	4.783	4.007	3.418	2.936	2.551
x1 = 0.8999	1013.19	1009.18	1005.13	1001.1	997.41	6.06	4.978	4.153	3.507	2.995
x1 = 1	1021.64	1017.63	1013.6	1009.56	1005.93	7.701	6.12	5.022	4.158	3.518
